Test system in the first experiment: not listed separately
As to the kind of experiment: DRUGMATRIX: Atrial Natriuretic Factor (ANF) radioligand binding (ligand: [125I] ANF (rat)). To be noted: Not Active = under 50% inhibition at 10 µM. The class given is cell membranes, Cavia porcellus, Dunkin-Hartley, Adrenal gland, Membrane.
Sequence of Sodium-dependent dopamine transporter (Q01959 whole entry): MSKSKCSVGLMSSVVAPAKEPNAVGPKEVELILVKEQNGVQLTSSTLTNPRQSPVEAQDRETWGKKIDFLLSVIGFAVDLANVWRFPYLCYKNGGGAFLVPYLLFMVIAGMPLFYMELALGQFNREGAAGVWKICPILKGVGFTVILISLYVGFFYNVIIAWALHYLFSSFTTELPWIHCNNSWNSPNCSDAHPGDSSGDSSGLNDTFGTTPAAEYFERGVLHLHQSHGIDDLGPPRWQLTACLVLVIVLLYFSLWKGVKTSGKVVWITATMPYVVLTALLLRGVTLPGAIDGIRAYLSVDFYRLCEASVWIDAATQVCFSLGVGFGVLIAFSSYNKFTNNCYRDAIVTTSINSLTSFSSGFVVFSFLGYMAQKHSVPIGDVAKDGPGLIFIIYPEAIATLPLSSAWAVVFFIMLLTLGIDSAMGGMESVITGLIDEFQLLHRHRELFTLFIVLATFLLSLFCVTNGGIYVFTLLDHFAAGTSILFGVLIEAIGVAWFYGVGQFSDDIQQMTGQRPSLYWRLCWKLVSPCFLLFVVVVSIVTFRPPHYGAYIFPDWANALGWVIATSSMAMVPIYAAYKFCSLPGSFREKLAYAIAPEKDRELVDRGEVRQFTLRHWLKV
With `CC(=O)[C@H]1[C@H](C#N)C[C@H]2[C@@H]3CC=C4C[C@@H](O)CC[C@]4(C)[C@H]3CC[C@@]21C` [PREGNENOLONE CARBONITRILE], the IC50 result is listed as “Not Active” and the Ki entry is on record as “Not Active”.

For `CCCN(CCC)S(=O)(=O)c1ccc(C(=O)O)cc1` [PROBENECID], the IC50 result was “Not Active” and the Ki result is on record as “Not Active”.

`CCCOc1ccc(C(=O)OCCN(CC)CC)cc1N` [PROPARACAINE]: the IC50 entry is reported as “Not Active” and the Ki entry was “Not Active”.

In the case of `CC(C)c1cccc(C(C)C)c1O` [PROPOFOL], the IC50 result was “Not Active” and the Ki entry is “Not Active”.

As to `C[C@@H]1O[C@@H](O[C@@H]2C=C3CC[C@@H]4[C@H](CC[C@]5(C)[C@@H](c6ccc(=O)oc6)CC[C@]45O)[C@@]3(C)CC2)[C@H](O)[C@H](O)[C@H]1O` [PROSCILLARIDIN], the IC50 entry is recorded as “Not Active” and the Ki result was “Not Active”.

The next experiment concerns the target T1, Vasoactive intestinal polypeptide receptor 1 (Homo sapiens, UniProt P32241). Further: in other assays of this panel Not Active means under 50% inhibition at 10 µM.
T1 sequence (P32241 whole entry): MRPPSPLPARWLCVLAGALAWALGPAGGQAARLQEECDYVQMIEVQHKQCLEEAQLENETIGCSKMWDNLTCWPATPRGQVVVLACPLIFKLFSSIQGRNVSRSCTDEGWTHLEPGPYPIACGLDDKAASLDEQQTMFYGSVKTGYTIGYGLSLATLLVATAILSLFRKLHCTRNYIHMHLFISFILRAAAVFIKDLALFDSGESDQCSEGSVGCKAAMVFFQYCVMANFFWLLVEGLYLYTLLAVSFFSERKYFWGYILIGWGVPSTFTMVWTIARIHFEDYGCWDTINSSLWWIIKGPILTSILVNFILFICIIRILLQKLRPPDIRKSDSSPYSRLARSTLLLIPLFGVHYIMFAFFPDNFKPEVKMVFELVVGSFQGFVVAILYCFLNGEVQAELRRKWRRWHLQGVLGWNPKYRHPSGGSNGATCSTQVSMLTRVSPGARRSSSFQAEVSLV
The class given is cell membranes, Membrane. To be noted: ht-29.
`CC(=O)[C@H]1[C@H](C#N)C[C@H]2[C@@H]3CC=C4C[C@@H](O)CC[C@]4(C)[C@H]3CC[C@@]21C` [PREGNENOLONE CARBONITRILE]: the IC50 entry is given as “Not Active”.

As for `CCCN(CCC)S(=O)(=O)c1ccc(C(=O)O)cc1` [PROBENECID], the IC50 entry is “Not Active”.

For the compound `CCCOc1ccc(C(=O)OCCN(CC)CC)cc1N` [PROPARACAINE], the IC50 result is on record as “Not Active”.

With `CC(C)c1cccc(C(C)C)c1O` [PROPOFOL], the IC50 result was “Not Active”.

Consider `C[C@@H]1O[C@@H](O[C@@H]2C=C3CC[C@@H]4[C@H](CC[C@]5(C)[C@@H](c6ccc(=O)oc6)CC[C@]45O)[C@@]3(C)CC2)[C@H](O)[C@H](O)[C@H]1O` [PROSCILLARIDIN], for which the IC50 entry was “Not Active”.

Another experiment addresses Sodium-dependent dopamine transporter (Homo sapiens, UniProt Q01959). The experiment can be described thus: DRUGMATRIX: Dopamine Transporter radioligand binding (ligand: [125I] RTI-55). The class given is cell membranes, CHO-K1, Membrane. To be noted: cho-k1; Not Active = under 50% inhibition at 10 µM.
For `CC(=O)[C@H]1[C@H](C#N)C[C@H]2[C@@H]3CC=C4C[C@@H](O)CC[C@]4(C)[C@H]3CC[C@@]21C` [PREGNENOLONE CARBONITRILE], the IC50 entry is “Not Active”.

With `CCCN(CCC)S(=O)(=O)c1ccc(C(=O)O)cc1` [PROBENECID], the IC50 result is recorded as “Not Active”.

For the compound `CCCOc1ccc(C(=O)OCCN(CC)CC)cc1N` [PROPARACAINE], the IC50 result is listed as “Not Active”.

In the case of `CC(C)c1cccc(C(C)C)c1O` [PROPOFOL], the IC50 entry is “Not Active”.

Consider `C[C@@H]1O[C@@H](O[C@@H]2C=C3CC[C@@H]4[C@H](CC[C@]5(C)[C@@H](c6ccc(=O)oc6)CC[C@]45O)[C@@]3(C)CC2)[C@H](O)[C@H](O)[C@H]1O` [PROSCILLARIDIN], for which the IC50 result is recorded as “Not Active”.

Test system in the next experiment: not listed separately
The experiment can be described thus: DRUGMATRIX: Glutamate, Kainate radioligand binding (ligand: [3H] Kainic acid). The class given is cell membranes, Rattus norvegicus, Wistar, Brain, Membrane. The following applies: Not Active = under 50% inhibition at 10 µM.
In the case of `CC(=O)[C@H]1[C@H](C#N)C[C@H]2[C@@H]3CC=C4C[C@@H](O)CC[C@]4(C)[C@H]3CC[C@@]21C` [PREGNENOLONE CARBONITRILE], the IC50 entry is reported as “Not Active” and the Ki entry was “Not Active”.

Turning to `CCCN(CCC)S(=O)(=O)c1ccc(C(=O)O)cc1` [PROBENECID], the IC50 result was “Not Active” and the Ki entry is given as “Not Active”.

As for `CCCOc1ccc(C(=O)OCCN(CC)CC)cc1N` [PROPARACAINE], the IC50 result is given as “Not Active” and the Ki result is given as “Not Active”.

Take `CC(C)c1cccc(C(C)C)c1O` [PROPOFOL]: the IC50 entry is “Not Active” and the Ki result was “Not Active”.

Turning to `C[C@@H]1O[C@@H](O[C@@H]2C=C3CC[C@@H]4[C@H](CC[C@]5(C)[C@@H](c6ccc(=O)oc6)CC[C@]45O)[C@@]3(C)CC2)[C@H](O)[C@H](O)[C@H]1O` [PROSCILLARIDIN], the IC50 entry is “Not Active” and the Ki entry is recorded as “Not Active”.

A further experiment deals with T2, 3-hydroxy-3-methylglutaryl-coenzyme A reductase (Homo sapiens, UniProt P04035).
T2 sequence (P04035 whole entry): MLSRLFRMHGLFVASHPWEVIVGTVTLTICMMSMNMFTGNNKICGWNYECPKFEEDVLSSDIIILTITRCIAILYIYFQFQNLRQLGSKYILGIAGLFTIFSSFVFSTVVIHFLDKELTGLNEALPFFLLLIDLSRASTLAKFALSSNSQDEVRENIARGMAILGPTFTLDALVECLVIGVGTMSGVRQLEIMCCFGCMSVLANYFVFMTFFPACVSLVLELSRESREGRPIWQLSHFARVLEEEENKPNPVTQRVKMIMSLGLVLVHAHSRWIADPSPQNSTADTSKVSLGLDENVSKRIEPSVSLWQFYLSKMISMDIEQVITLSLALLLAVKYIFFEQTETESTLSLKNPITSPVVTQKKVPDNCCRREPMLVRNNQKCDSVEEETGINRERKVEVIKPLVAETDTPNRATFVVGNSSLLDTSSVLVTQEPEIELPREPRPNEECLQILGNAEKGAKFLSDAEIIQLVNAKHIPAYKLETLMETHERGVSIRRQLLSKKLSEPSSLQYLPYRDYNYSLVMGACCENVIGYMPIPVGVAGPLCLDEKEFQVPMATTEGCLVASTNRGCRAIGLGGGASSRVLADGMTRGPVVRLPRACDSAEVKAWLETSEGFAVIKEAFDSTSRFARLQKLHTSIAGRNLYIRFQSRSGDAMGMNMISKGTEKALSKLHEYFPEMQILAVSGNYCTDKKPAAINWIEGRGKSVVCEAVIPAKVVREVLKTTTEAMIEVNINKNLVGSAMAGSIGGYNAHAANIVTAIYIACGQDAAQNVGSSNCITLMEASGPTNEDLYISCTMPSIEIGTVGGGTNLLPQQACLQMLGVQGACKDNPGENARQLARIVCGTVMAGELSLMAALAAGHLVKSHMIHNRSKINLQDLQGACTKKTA
More on the design: species or system Escherichia coli.
Conditions: not given
With `CC(=O)[C@H]1[C@H](C#N)C[C@H]2[C@@H]3CC=C4C[C@@H](O)CC[C@]4(C)[C@H]3CC[C@@]21C` [PREGNENOLONE CARBONITRILE], the IC50 entry is given as “Not Active”.

With `CCCN(CCC)S(=O)(=O)c1ccc(C(=O)O)cc1` [PROBENECID], the IC50 entry is given as “Not Active”.

Consider `CCCOc1ccc(C(=O)OCCN(CC)CC)cc1N` [PROPARACAINE], for which the IC50 entry is given as “Not Active”.

With `CC(C)c1cccc(C(C)C)c1O` [PROPOFOL], the IC50 result is recorded as “Not Active”.

Turning to `C[C@@H]1O[C@@H](O[C@@H]2C=C3CC[C@@H]4[C@H](CC[C@]5(C)[C@@H](c6ccc(=O)oc6)CC[C@]45O)[C@@]3(C)CC2)[C@H](O)[C@H](O)[C@H]1O` [PROSCILLARIDIN], the IC50 entry is reported as “Not Active”.

Test system in the next experiment: not listed separately
As to the kind of experiment: DRUGMATRIX: Potassium Channel [KATP] radioligand binding (ligand: [3H] Glyburide). The class given is cell membranes, Membrane. To be noted: hit-t15; Not Active = under 50% inhibition at 10 µM.
`CC(=O)[C@H]1[C@H](C#N)C[C@H]2[C@@H]3CC=C4C[C@@H](O)CC[C@]4(C)[C@H]3CC[C@@]21C` [PREGNENOLONE CARBONITRILE]: the IC50 result was “Not Active” and the Ki entry is “Not Active”.

Consider `CCCN(CCC)S(=O)(=O)c1ccc(C(=O)O)cc1` [PROBENECID], for which the IC50 result is listed as “Not Active” and the Ki result is on record as “Not Active”.

Consider `CCCOc1ccc(C(=O)OCCN(CC)CC)cc1N` [PROPARACAINE], for which the IC50 entry is “Not Active” and the Ki result is reported as “Not Active”.

Take `CC(C)c1cccc(C(C)C)c1O` [PROPOFOL]: the IC50 entry is recorded as “Not Active” and the Ki result was “Not Active”.

As to `C[C@@H]1O[C@@H](O[C@@H]2C=C3CC[C@@H]4[C@H](CC[C@]5(C)[C@@H](c6ccc(=O)oc6)CC[C@]45O)[C@@]3(C)CC2)[C@H](O)[C@H](O)[C@H]1O` [PROSCILLARIDIN], the IC50 entry is “Not Active” and the Ki entry is “Not Active”.

A further experiment has as its target T3, Progesterone receptor (Bos taurus, UniProt Q690N0).
T3 sequence (Q690N0 whole entry): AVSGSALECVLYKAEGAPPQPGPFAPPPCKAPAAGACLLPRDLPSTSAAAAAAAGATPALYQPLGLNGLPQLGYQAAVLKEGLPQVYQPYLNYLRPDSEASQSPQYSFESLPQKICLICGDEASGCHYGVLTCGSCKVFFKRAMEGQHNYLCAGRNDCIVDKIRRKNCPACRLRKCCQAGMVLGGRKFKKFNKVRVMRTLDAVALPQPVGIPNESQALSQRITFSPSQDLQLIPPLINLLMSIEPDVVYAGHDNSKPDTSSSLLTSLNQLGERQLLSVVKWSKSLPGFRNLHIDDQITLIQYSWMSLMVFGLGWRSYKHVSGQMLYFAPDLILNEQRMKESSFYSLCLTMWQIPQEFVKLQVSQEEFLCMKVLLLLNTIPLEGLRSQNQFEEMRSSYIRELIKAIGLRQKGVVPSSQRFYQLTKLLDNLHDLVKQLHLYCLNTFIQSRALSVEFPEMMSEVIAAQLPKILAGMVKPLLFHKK
As to the kind of experiment: DRUGMATRIX: Progesterone radioligand binding (ligand: [3H] R-5020). The following applies: Not Active = under 50% inhibition at 10 µM. The class given is tissue-based, Uterus.
As to `CC(=O)[C@H]1[C@H](C#N)C[C@H]2[C@@H]3CC=C4C[C@@H](O)CC[C@]4(C)[C@H]3CC[C@@]21C` [PREGNENOLONE CARBONITRILE], the IC50 result was “Not Active”.

As for `CCCN(CCC)S(=O)(=O)c1ccc(C(=O)O)cc1` [PROBENECID], the IC50 entry is “Not Active”.

Take `CCCOc1ccc(C(=O)OCCN(CC)CC)cc1N` [PROPARACAINE]: the IC50 result was “Not Active”.

`CC(C)c1cccc(C(C)C)c1O` [PROPOFOL]: the IC50 result was “Not Active”.

Turning to `C[C@@H]1O[C@@H](O[C@@H]2C=C3CC[C@@H]4[C@H](CC[C@]5(C)[C@@H](c6ccc(=O)oc6)CC[C@]45O)[C@@]3(C)CC2)[C@H](O)[C@H](O)[C@H]1O` [PROSCILLARIDIN], the IC50 entry is “Not Active”.
